Source: US20260053811A1, “METHODS OF TREATING HYPERTENSION IN OBESE SUBJECTS” (Mineralys Therapeutics, Inc., priority 2022, published 2026)

Test system: hypertensive subjects
Test: Seated automated office blood pressure (AOBP) in randomized, placebo-controlled, dose-ranging study
Assay type: in vivo, human
Settings: Part 1
Method: A randomized, double-blinded, placebo-controlled, dose-ranging, multicenter study was conducted to evaluate the effect of orally administered Compound A HBr on blood pressure for the treatment of hypertension in male and female subjects ≥18 years of age.
The study consists of two parts. For enrollment into Part 1 of the study, a subject's value of plasma renin activity (PRA) must be ≤1 ng/mL/h based on morning measurement. If the value of PRA >1 ng/mL/h based on morning measurement, then subjects may be eligible to enter Part 2 of the study.
For Part 1, 163 enrolled subjects ≥18 years of age were randomized into 6 equal treatment groups (1:1:1:1:1:1) to 12.5 mg BID, 25 mg BID, 12.5 mg QD, 50 mg QD, 100 mg QD, or placebo. After a review of interim clinical data, the 2 lowest dose levels (12.5 mg QD and 12.5 mg BID) were stopped for future randomization due to a lack of consistent meaningful reduction of blood pressure, but the patients randomized to that point remained in the study through completion. Thus, after the review of interim clinical data, subjects were randomized into 4 equal treatment groups (1:1:1:1) to 25 mg BID, 50 mg QD, 100 mg QD, or placebo.
For Part 2, 36 enrolled subjects ≥18 years of age were randomized (5:1) to either 100 mg QD Compound A HBr or placebo such that the Compound A HBr treatment group consisted of approximately 30 subjects and the placebo treatment group will consist of approximately 6 subjects.
Subjects orally administered the assigned study drug (Compound A HBr or placebo) according to the assigned dosing regimen for 8 weeks beginning on Study Day 1. All subjects in Part 1 (regardless of dosing group) received BID dosing to preserve the integrity of the blind; active drug is administered as the morning dose for all QD dose groups. Subjects returned to the research facility or were seen by the clinical investigator or approved home health care professional at the end of Study Weeks 1, 2, 3, 4, 5, 6, 7, and 8 (±2 days) for protocol-defined efficacy and safety assessments and procedures, assessment of adverse events (AEs), and confirmation of compliance with study drug usage. Subjects also completed a telephone visit and blood pressure (BP) check at home approximately 3 days post last dose of study drug. Subjects attended up to 14 full clinic visits, including a pre-Screening visit, a Screening/start of Placebo Run-in visit, a second visit during Placebo Run-in, a clinic visit to initiate the ABPM procedure, a Randomization visit, 8 weekly visits during double-blind treatment, and an end-of-study visit scheduled 4 weeks after the last study treatment for final efficacy and safety assessments.
An automated oscillometric sphygmomanometer device was used to measure the subjects' systolic and diastolic blood pressure in office after approximately 5 minutes of rest in the seated position.
The primary endpoint is the change in office-measured (mean of last 2 of 5 unattended measurements using an automated oscillometric sphygmomanometer device after approximately 5 minutes of rest in the seated position) systolic blood pressure (SBP) from baseline to the end of Study Week 8.
Secondary endpoints of this study were: • (a) Change in 24-hour ambulatory blood pressure monitoring (ABPM) parameters (systolic and diastolic) from baseline to the end of Study Week 7. • (b) Change in office-measured SBP from baseline to the end of Study Weeks 1, 2, 3, 4, 5, 6, and 7. • (c) Change in office-measured diastolic blood pressure (DBP) from baseline to the end of Study Weeks 1, 2, 3, 4, 5, 6, 7, and 8. • (d) Proportion of subjects who achieve office-measured BP of ≤130/80 mm Hg by the end of Study Week 8.

[1] = 12.5 mg BID, Seated SBP Tertile High
[2] = 12.5 mg BID, Seated SBP Tertile Middle
[3] = 12.5 mg BID, Systolic Blood Pressure Tertile at Baseline High
[4] = 12.5 mg BID, Systolic Blood Pressure Tertile at Baseline Low
[5] = 12.5 mg BID, Systolic Blood Pressure Tertile at Baseline Middle
[6] = 12.5 mg BID, Thiazide Diuretic Use at Baseline No
[7] = 12.5 mg BID, Thiazide Diuretic Use at Baseline Yes

Structure (SMILES): CC(=O)N[C@H]1CC[C@H](NC(=O)CN2CCN(c3nncc(-c4ccc(C)cc4)n3)CC2)CC1 [Compound A HBr]
- Mean (SD) Change from Baseline at Week 8 in Automated Office-Measured Diastolic Blood Pressure (12.5 mg BID, Race Black or AA): 0.21 (7.03) mmHg
- Mean (SD) Change from Baseline at Week 8 in Automated Office-Measured Systolic Blood Pressure (12.5 mg BID, Race Black or AA): −7.43 (20.17) mmHg
- Mean (SD) Automated Office-Measured Diastolic Blood Pressure at Wk 8 (12.5 mg BID, Race Other): 72.92 (10.54) mmHg
- Mean (SD) Automated Office-Measured Systolic Blood Pressure at Wk 8 (12.5 mg BID, Race Other): 128.50 (11.84) mmHg
- Mean (SD) Change from Baseline at Week 8 in Automated Office-Measured Diastolic Blood Pressure (12.5 mg BID, Race Other): −9.38 (7.89) mmHg
- Mean (SD) Change from Baseline at Week 8 in Automated Office-Measured Systolic Blood Pressure (12.5 mg BID, Race Other): −17.50 (15.80) mmHg
- Mean (SD) Automated Office-Measured Diastolic Blood Pressure at Wk 8 [1]: 74.86 (11.87) mmHg
- Mean (SD) Change from Baseline at Week 8 in Automated Office-Measured Diastolic Blood Pressure [1]: −6.93 (7.79) mmHg
- Mean (SD) Automated Office-Measured Diastolic Blood Pressure at Wk 8 (12.5 mg BID, Seated SBP Tertile Low): 78.50 (9.88) mmHg
- Mean (SD) Automated Office-Measured Diastolic Blood Pressure at Wk 8 [2]: 73.88 (9.48) mmHg
- Mean (SD) Change from Baseline at Week 8 in Automated Office-Measured Diastolic Blood Pressure [2]: −6.69 (10.60) mmHg
- Mean (SD) Automated Office-Measured Diastolic Blood Pressure at Wk 8 (12.5 mg BID, Sex Female): 74.07 (10.32) mmHg
- Mean (SD) Automated Office-Measured Systolic Blood Pressure at Wk 8 (12.5 mg BID, Sex Female): 131.00 (14.17) mmHg
- Mean (SD) Change from Baseline at Week 8 in Automated Office-Measured Diastolic Blood Pressure (12.5 mg BID, Sex Female): −5.25 (9.78) mmHg
- Mean (SD) Change from Baseline at Week 8 in Automated Office-Measured Systolic Blood Pressure (12.5 mg BID, Sex Female): −12.46 (18.69) mmHg
- Mean (SD) Automated Office-Measured Systolic Blood Pressure at Wk 8 [3]: 131.86 (14.81) mmHg
- Mean (SD) Change from Baseline at Week 8 in Automated Office-Measured Systolic Blood Pressure [3]: −24.93 (18.46) mmHg
- Mean (SD) Automated Office-Measured Systolic Blood Pressure at Wk 8 [4]: 132.25 (10.34) mmHg
- Mean (SD) Change from Baseline at Week 8 in Automated Office-Measured Systolic Blood Pressure [4]: −0.75 (5.48) mmHg
- Mean (SD) Automated Office-Measured Systolic Blood Pressure at Wk 8 [5]: 131.75 (14.00) mmHg
- Mean (SD) Change from Baseline at Week 8 in Automated Office-Measured Systolic Blood Pressure [5]: −10.56 (16.34) mmHg
- Automated Office-Measured Diastolic Blood Pressure, Week 8, Mean (SD) [6]: 79.57 (10.75) mmHg
- Mean (SD) Automated Office-Measured Systolic Blood Pressure at Wk 8 [6]: 139.29 (13.28) mmHg
- Mean (SD) Change from Baseline at Week 8 in Automated Office-Measured Diastolic Blood Pressure [6]: −3.29 (8.80) mmHg
- Mean (SD) Change from Baseline at Week 8 in Automated Office-Measured Systolic Blood Pressure [6]: −4.43 (15.93) mmHg
- Automated Office-Measured Diastolic Blood Pressure, Week 8, Mean (SD) [7]: 72.67 (9.15) mmHg
- Mean (SD) Automated Office-Measured Systolic Blood Pressure at Wk 8 [7]: 127.58 (11.07) mmHg
- Mean (SD) Change from Baseline at Week 8 in Automated Office-Measured Diastolic Blood Pressure [7]: −7.33 (8.79) mmHg
- Mean (SD) Change from Baseline at Week 8 in Automated Office-Measured Systolic Blood Pressure [7]: −19.25 (16.90) mmHg
- Mean (SD) Automated Office-Measured Systolic Blood Pressure at Wk 8 (12.5 mg QD, ACEi/ARB No): 138.25 (20.45) mmHg
- Mean (SD) Change from Baseline at Week 8 in Automated Office-Measured Systolic Blood Pressure (12.5 mg QD, ACEi/ARB No): −8.50 (31.61) mmHg
- Mean (SD) Automated Office-Measured Systolic Blood Pressure at Wk 8 (12.5 mg QD, ACEi/ARB Yes): 141.50 (23.12) mmHg
- Mean (SD) Change from Baseline at Week 8 in Automated Office-Measured Systolic Blood Pressure (12.5 mg QD, ACEi/ARB Yes): −6.39 (16.84) mmHg
- Mean (SD) Automated Office-Measured Diastolic Blood Pressure at Wk 8 (12.5 mg QD, ACEi/ARBs No): 73.25 (13.50) mmHg
- Mean (SD) Change from Baseline at Week 8 in Automated Office-Measured Diastolic Blood Pressure (12.5 mg QD, ACEi/ARBs No): −5.50 (11.85) mmHg
- Mean (SD) Automated Office-Measured Diastolic Blood Pressure at Wk 8 (12.5 mg QD, ACEi/ARBs Yes): 83.79 (17.89) mmHg
- Mean (SD) Change from Baseline at Week 8 in Automated Office-Measured Diastolic Blood Pressure (12.5 mg QD, ACEi/ARBs Yes): −0.71 (13.94) mmHg
- Mean (SD) Automated Office-Measured Diastolic Blood Pressure at Wk 8 (12.5 mg QD, AHTs 2): 80.80 (18.35) mmHg
- Mean (SD) Automated Office-Measured Systolic Blood Pressure at Wk 8 (12.5 mg QD, AHTs 2): 142.80 (25.41) mmHg
- Mean (SD) Change from Baseline at Week 8 in Automated Office-Measured Diastolic Blood Pressure (12.5 mg QD, AHTs 2): −4.60 (10.04) mmHg
- Mean (SD) Change from Baseline at Week 8 in Automated Office-Measured Systolic Blood Pressure (12.5 mg QD, AHTs 2): −9.70 (21.49) mmHg
- Mean (SD) Automated Office-Measured Diastolic Blood Pressure at Wk 8 (12.5 mg QD, AHTs ≥3): 82.25 (16.96) mmHg
- Mean (SD) Automated Office-Measured Systolic Blood Pressure at Wk 8 (12.5 mg QD, AHTs ≥3): 138.25 (18.26) mmHg
- Mean (SD) Change from Baseline at Week 8 in Automated Office-Measured Diastolic Blood Pressure (12.5 mg QD, AHTs ≥3): 1.75 (16.61) mmHg
- Mean (SD) Change from Baseline at Week 8 in Automated Office-Measured Systolic Blood Pressure (12.5 mg QD, AHTs ≥3): −3.31 (18.37) mmHg
- Mean (SD) Automated Office-Measured Diastolic Blood Pressure at Wk 8 (12.5 mg QD, Age 65-79 yr): 77.25 (5.52) mmHg
